Measurements from patent publication US5028598A, “Oxetanocin derivatives and their salts as well as use thereof” (Nippon Kayaku Kabushiki Kaisha, priority 1989, dated 1991).
≈ marks a conversion by molar mass, not a printed value.

How the values were obtained:
[1] = Cytotoxicity against MT-4 cells without virus (Trypane Blue staining, viable cell count); type: cell-based; settings: human, no virus added, read-out: CC50 (50% cytotoxicity)
Method: Furthermore, cytotoxicity of Compound (lH) and Compound (lP) against MT-4 cells was examined without adding virus. After staining with […] Blue, viable cells were counted. Based on the count of viable cells where the chemical was added and where no chemical was added, a degree of inhibition was calculated. A concentration of the chemical and the degree of inhibition were plotted on semilogarithmic paper to determine 50% cytotoxicity (CC50 value).

AIDS virus = experiment: Anti-AIDS viral activity: virus antigen in infected MT-4 cells by indirect fluorescent antibody method; type: cell-based; settings: Human immunodeficiency virus 1, MT4, compound added 2 hours before virus, 10^3 to 10^4 infection units, cultured 4 days, read-out: EC50 (50% infection inhibitory concentration)
Method: After 0.5 ml of cell suspension prepared from MT-4 cells in 1×10^5 /ml was charged in a 24 well tray, 50 μl of a solution containing a predetermined quantity of Compound (lH) or Compound (lP) was added to the suspension. After culturing at 37° C. for 2 hours in 5% (v/v) carbon dioxide incubator, 10^3 to 10^4 infection units of AIDS virus were added and cultured for 4 days. Then, a part of the culture medium was applied onto a slide glass and immobilized with acetone, after which development of virus antigen was observed by indirect fluorescent antibody method. As the primary antibody of the fluorescent antibody method, a serum of AIDS patient was used. As its secondary antibody, FITC-labelled anti-human IgG antibody was used. Based on a proportion of the infected cells and non-infected cells where the chemical was added and where no chemical was added, a rate of infection was calculated. A concentration of the chemical and the rate of infection were plotted on semilogarithmic paper to determine 50% infection inhibitory concentration (EC50 value).

With `Nc1nnnc2c1ncn2[C@@H]1O[C@H](CO)[C@H]1CO` [Compound (1H)] the CC50 [1] was greater than 100 µg/mL and the EC50 (AIDS virus) was 0.035 µg/mL (≈ 0.139 µM).
With `Nc1nnnc2c1ncn2[C@@H]1O[C@H](COP(=O)(O)O)[C@H]1CO` [Compound (1P)] the CC50 [1] was greater than 100 µg/mL and the EC50 (AIDS virus) was 0.14 µg/mL (≈ 0.421 µM).
